Measurements: patent US20090318379A1, “Statins for the Treatment of Viral Influenza Infections” (priority 2006, published 2009)
Read-outs that look alike come from different tables or passages of the source.

Legend:
Influenza A H5N1 [1] = assay type: cell-based, Influenza A H5N1 (isolated in 1997 from human)
Influenza A H5N1 [2] = assay type: cell-based, Influenza A H5N1 (isolated in 1997 from human); remark: listed apart in the source
Influenza A H5N1 [3] = assay type: cell-based, Influenza A H5N1 (isolated in 1997 from human); remark: listed apart in the source
MDCK cells [4] = test system: MDCK cells
MDCK cells [5] = test system: MDCK cells; remark: listed apart in the source
MDCK cells [6] = test system: MDCK cells; remark: listed apart in the source

NC(=O)c1ncn([C@@H]2O[C@H](CO)[C@@H](O)[C@H]2O)n1 [RIBAVIRIN, Ribavirin, reference compound]
Number of plaques (Influenza A H5N1 [1]): 11000
No. of plaque (Influenza A H5N1 [2]): 0
No. of plaque 1st well (Influenza A H5N1 [3]): 134
No. of plaque 2nd well (Influenza A H5N1 [3]): 131
No. of plaque 3rd well (Influenza A H5N1 [3]): 132
Cytotoxicity in virus yield reduction assay (MDCK cells [4]): No
Cytotoxicity (MDCK cells [5]): No
Cytotoxicity (MDCK cells [6]): No
